Values joined by “and” are separate entries in the source; they are usually repeats but may differ in a detail not shown here. Identical values can stand only once.
What was measured:
[1] = Quantification of C29 in mouse cerebellum postmortem (LC/MS); assay type: in vivo; conditions: for Amount of C29 in cerebellum: individual animals
Method: A 5 mM stock solution of C29 (1.743 mg/mL) in DMSO was prepared. This solution was diluted with a mixture of acetonitrile/water, 8/4, v/v to produce the solution with the highest concentration: 1250 ng/1.2 mL. Successive dilutions with acetonitrile/water, 8/4, v/v provided 5 more standards with concentrations between 50 ng/mL and 1250 ng/mL.
Samples of cerebellum were prepared by dissolving minced biological material in 1.2 mL acetonitrile/water, 8/4, v/v. After sonication for 5 min, the vials were centrifuged (15,000 rpm) and the supernatant was filtered through a […] PTFE microfilter.
All standards and samples were analysed using a LC/MS system consisting of an Agilent 1100 HPLC chain with a degasser, a binary pump, a column oven, an automatic injector, and a UV detector. The column is a Phenomenex Gemini analytical column 3 µm C18 110 A 150 mm × 3 mm × 3 µm, at 25 °C. The solvents are water with 0.1% formic acid (solvent A) and acetonitrile with 0.1% formic acid (solvent B). The gradient is as follows: 10% B to 100% B over 8 min, 100% B over 6 min, 100% B to 10% B over 1 min, and 10% B over 3 min (total time: 18 min). The UV detection is carried out over the range of 190–400 nm (in 2 nm steps). The mass spectrometer is an LCQ Advantage (ThermoScientific, Waltham, MA, USA) of the “ion trap 3D” type, equipped with an electrospray source.
Mass spectrometric detection was carried out in negative mode and in SRM (single reaction monitoring) mode according to the monitoring of the 380.9–194.2 transition. The isolation span of the ion was 2 mass units (193.2–195.2). The applied normalized collision energy was 30%. Each standard and sample were injected in duplicate. Each duplicate was separated by a blank and the concentration of the standards ranged from […]. […] Signals were acquired based on their area and integrated using the ICIS algorithm according to the following parameters: smoothing points: 15; baseline window: 75 scans; area noise factor: 5; peak noise factor: 10. Calibration is external, and the regression was linear. The origin was included in the calibration.
A critical and limiting feature of a drug targeting MB is its ability to cross the blood–brain barrier (BBB) and reach the tumour in the brain. […] However, after 5 days of treatment, 24 h after the last administration, no more C29 was found in the cerebellum of the mice.

[2] = system: DR1/DR2 and HR1/HR2 radio-resistant cells; experiment: Cell proliferation assay (cell counting), radiation-resistant cells; assay type: cell-based, human; conditions: 1 µM
Method: Figure 8 C29 is efficient on radioresistant MB cell lines. (A) Cell death after 48 h of treatment with control (DMSO, CT) or C29 1, 2.5, or 5 µM on radiation-resistant cells (RR) and normal cells (N), n = 3. Statistics were performed using the one-way method ANOVA. * p < 0.05, ** p < 0.01, *** p < 0.001. For this figure, DR1 = D1, DR2 = D2, HR1 = H1, HR2 = H2, and C8D1A = C8. (B) Proliferation of DR1/DR2 (A) and HR1/HR2 (B) radio-resistant cells after 1 µM C29 treatment or control (DMSO), n = 3. (C) Clonogenic assay on DR1, DR2 (n = 3) and HR1, HR2 (n = 3) cells after treatment with control (DMSO) or C29 (1 µM or 2.5 µM). […] Results are expressed as percentage of control (n = 3). […]
1500 Daoy, ONS ‐76, HD ‐MB03 or D341 Med cells were sown in triplicate in plates with six wells and the cells were counted daily for 8 days using a Coulter counter (Ville‐ pinte). The relative number of cells (compared to day 1) was determined daily. […]
Y = Y0 * exp(k * X) (Y= Cell number at day X; Y0= Cell number at day 0 (graphically calculated); X= Day following cell plating (cells plated at X0=0); k= Exponential growth constant rate. Doubling times were compared.
150 Daoy/DR1/DR2/ ONS ‐ 76 and 300 HD ‐ MB03/HR1/HR2 cells were seeded in trip‐ licate in 6‐well plates in the presence or absence of treatment (1 or 2∙5μM MCK140 or DMSO as control). […] The number of clones was quantified using ImageJ software. […]

Accumulation in cerebellum upon repeated administration ([1]; 5 days of treatment, 24 h after the last administration): does not accumulate
Amount of C29 in cerebellum ([1]; gavage 100 mg/kg daily, chronic (5 days), 24 h after last treatment): 0 ng C29/mg cerebellum
Amount of C29 in cerebellum ([1]; gavage 200 mg/kg daily, chronic (5 days), 24 h after last treatment): 0 ng C29/mg cerebellum
Blood–brain barrier crossing ([1]; oral administration): can cross the blood–brain barrier
Compound: O=C(Nc1cccc(Cl)c1)Nc1nc2ccc([N+](=O)[O-])cc2s1 [C29, 1-(3-chlorophenyl)-3-(6-nitrobenzo[d]thiazol-2-yl) urea]
Amount of C29 in cerebellum ([1]; gavage 100 mg/kg, acute (3 h), 100 mg/kg): 0 ng C29/mg cerebellum and 5.394 ng C29/mg cerebellum
Amount of C29 in cerebellum ([1]; gavage 200 mg/kg, acute (3 h), 200 mg/kg): 13.1 ng C29/mg cerebellum and 9.3 ng C29/mg cerebellum and 7.4 ng C29/mg cerebellum and 4.7 ng C29/mg cerebellum and 6.4 ng C29/mg cerebellum
Proliferation [2]: reduce proliferation

Source: paper PMC9738107, “Targeting of the ELR+CXCL/CXCR1/2 Pathway Is a Relevant Strategy for the Treatment of Paediatric Medulloblastomas” (Cells, 2022)
